Data from US7138361B2, “Herbicidal heterocycles” (E. I. du Pont de Nemours and Company, priority 2000, dated 2006).

Tests used:
Type in all cases: in vivo
Ammania auriculata (Aa) = assay: Test D greenhouse paddy-water test in rice; details: 21 days, 0-100 scale
Excerpt: (§1) Four plastic pots (ca. 16-cm diameter) per rate were partially filled with sterilized Tama silt loam soil comprised of a 35:50:15 ratio of sand, silt and clay and 2.6% organic matter. Separate plantings for each of the four pots were as follows. Seeds from the U.S. of Heteranthera limosa (Hl), Monochoria vaginalis (Mv), Ammania auriculata (Aa), and Sphenoclea zeylanica (Sz) were planted into one 16-cm pot for each rate. Seeds from the U.S. of Cyperus iria (Ci), Leptochloa fascicularis (Li), one stand of 9 or 10 direct-seeded rice seedlings (Oryza saliva cv. ‘Japonica—M202’; Oss), and one stand of 6 transplanted rice seedlings (Oryza sativa cv. ‘Japonica—M202’; Ost) were planted into one 16-cm pot for each rate. Seeds from the U.S. of Cyperus difformis (Cd), Alisma plantago-aquatica (Ap), and Scirpus mucronatus (Sm) were planted into one 16-cm pot for each rate. Seeds from the U.S. of Echinochloa crus-galli (Ecg), Echinochloa oryzicola (Eor), Echinochloa oryzoides (Eoz) and Echinochloa colonum (Ecc) were planted into one 16-cm pot for each rate. Plantings were sequential so that crop and weed species were at the 2.0 to 2.5-leaf stage at time of treatment.
(§2) Potted plants were grown in a greenhouse with day/night temperature settings of 29.5/26.7° C., and supplemental balanced lighting was provided to maintain a 16-hour photoperiod. Test pots were maintained in the greenhouse until test completion.
(§3) Chemical treatments consisting of Compound 1 of Index Table A (Cmpd 1), daimuron (Cmpd D), quinoclamine (Cmpd Q) and combinations thereof were formulated in acetone. At time of treatment, test pots were flooded to 3 cm above the soil surface, treated by application of test compounds directly to the paddy water, and then maintained at that water depth for the duration of the test. Effects of treatments on rice and weeds were visually evaluated by comparison to untreated controls after 21 days. Plant response ratings are reported on a 0 to 100 scale; where 0 is no effect and 100 is complete control. ND means no data.
(§4) Colby's equation was used to calculate the expected additive herbicidal effect of the mixtures of Compound 1 with daimuron (Cmpd D) and quinoclamine (Cmpd Q). Colby's equation (Colby, S. R “Calculating Synergistic and Antagonistic Responses of Herbicide Combinations,” Weeds, 15(1), pp 20–22 (1967)) calculates the expected additive effect of herbicidal mixtures, and for two active ingredients is of the form: Pa+b=Pa+Pb−(PaPb/100) wherein Pa+b is the percentage effect of the mixture expected from additive contribution of the individual components, • Pa is the observed percentage effect of the first active ingredient at the same use rate as in the mixture, and • Pb is the observed percentage effect of the second active ingredient at the same use rate as in the mixture.

[1] = system: Echinochloa oryzicola (Eor); assay: Test D greenhouse paddy-water test in rice; details: 21 days, 0-100 scale
Excerpt: as §1, §2, §3, §4

Heteranthera limosa (Hl) = assay: Test D greenhouse paddy-water test in rice; details: 21 days, 0-100 scale
Excerpt: as §1, §2, §3, §4

Cyperus iria (Ci) = assay: Test D greenhouse paddy-water test in rice; details: 21 days, 0-100 scale
Excerpt: as §1, §2, §3, §4

[2] = system: Echinochloa oryzoides (Eoz); assay: Test D greenhouse paddy-water test in rice; details: 21 days, 0-100 scale
Excerpt: as §1, §2, §3, §4

[3] = system: windgrass (Apera spica-venti); assay: Test C postemergence
Procedure, shortened: (§5)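 Each compound was dissolved in a non-phytotoxic solvent system containing a surfactant and sprayed either on freshly planted seeds (preemergence) or on young plants, 2 to 18 cm high (postemergence). Ratings after 12 to 14 greenhouse days ran from 0, no effect, to 100, complete control.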

[4] = system: blackgrass (Alopecurus myosuroides); assay: Test C postemergence
Procedure, shortened: as §5

wild oat (Avena fatua) = assay: Test C postemergence
Procedure, shortened: as §5

[5] = system: downy brome (Bromus tectorum); assay: Test C postemergence
Procedure, shortened: as §5

[6] = system: Italian ryegrass (Lolium multiflorum); assay: Test C postemergence
Procedure, shortened: as §5

[7] = system: wheat (Triticum aestivum); assay: Test C postemergence
Procedure, shortened: as §5

[8] = system: canary grass (Phalaris minor); assay: Test C postemergence
Procedure, shortened: as §5

[9] = Rate 125 g/ha, scale 0 to 100, 0 no effect, 100 complete control
[10] = Rate 250 g/ha, scale 0 to 100 (0 no effect, 100 complete control)
[11] = Rate 500 g/ha, scale 0 to 100 (0 no effect, 100 complete control)

## CC(C)(C)c1ccn(C2SCN(c3cccc(C(F)(F)F)c3)C2=O)n1 (stereo not shown) [Compound 1]
Ammania auriculata (Aa); 32 g/ha alone
  Obs. (observed effect) Aa: 85
Ammania auriculata (Aa); 64 g/ha alone
  Obs. (observed effect) Aa: 95
Ammania auriculata (Aa); 125 g/ha alone
  Obs. (observed effect) Aa: 100
Ammania auriculata (Aa); 250 g/ha alone
  Obs. (observed effect) Aa: 100
Ammania auriculata (Aa); 500 g/ha alone
  Obs. (observed effect) Aa: 100
[1]; 32 g/ha alone
  Obs. (observed effect) Eor: 0
[1]; 64 g/ha alone
  Obs. (observed effect) Eor: 30
[1]; 125 g/ha alone
  Obs. (observed effect) Eor: 40
[1]; 250 g/ha alone
  Obs. (observed effect) Eor: 100
[1]; 500 g/ha alone
  Obs. (observed effect) Eor: 100
Heteranthera limosa (Hl); 64 g/ha alone
  Obs. (observed effect) Hl: 40
Heteranthera limosa (Hl); 125 g/ha alone
  Obs. (observed effect) Hl: 90
Heteranthera limosa (Hl); 250 g/ha alone
  Obs. (observed effect) Hl: 100
Heteranthera limosa (Hl); 500 g/ha alone
  Obs. (observed effect) Hl: 100
Cyperus iria (Ci); 32 g/ha alone
  Obs. (observed effect) Ci: 95
Cyperus iria (Ci); 64 g/ha alone
  Obs. (observed effect) Ci: 100
Cyperus iria (Ci); 125 g/ha alone
  Obs. (observed effect) Ci: 100
Cyperus iria (Ci); 250 g/ha alone
  Obs. (observed effect) Ci: 100
Cyperus iria (Ci); 500 g/ha alone
  Obs. (observed effect) Ci: 100
[2]; 32 g/ha alone
  Obs. (observed effect) Eoz: 20
[2]; 64 g/ha alone
  Obs. (observed effect) Eoz: 100
[2]; 125 g/ha alone
  Obs. (observed effect) Eoz: 100
[2]; 250 g/ha alone
  Obs. (observed effect) Eoz: 100
[2]; 500 g/ha alone
  Obs. (observed effect) Eoz: 100

## CC1(c2ccn(C3OCN(c4cccc(OC(F)(F)F)c4)C3=O)n2)CC1 (stereo not shown) [Compound 69]
[3]; Rate 62 g/ha, scale 0 to 100
  Plant response rating, Windgrass: 0
[3]; [9]
  Plant response rating, Windgrass: 0
[3]; [10]
  Plant response rating, Windgrass: 0
[3]; [11]
  Plant response rating, Windgrass: 20
[4]; Rate 62 g/ha, scale 0 to 100
  Plant response rating, Blackgrass: 0
[4]; [9]
  Plant response rating, Blackgrass: 0
[4]; [10]
  Plant response rating, Blackgrass: 0
[4]; [11]
  Plant response rating, Blackgrass: 20
Wild oat (Avena fatua); Rate 62 g/ha, scale 0 to 100
  Plant response rating, Wild Oat: 0
Wild oat (Avena fatua); [9]
  Plant response rating, Wild Oat: 0
Wild oat (Avena fatua); [10]
  Plant response rating, Wild Oat: 0
Wild oat (Avena fatua); [11]
  Plant response rating, Wild Oat: 20
[5]; Rate 62 g/ha, scale 0 to 100
  Plant response rating, Downy Brome: 0
[5]; [9]
  Plant response rating, Downy Brome: 0
[5]; [10]
  Plant response rating, Downy Brome: 0
[5]; [11]
  Plant response rating, Downy Brome: 0
[6]; Rate 62 g/ha, scale 0 to 100
  Plant response rating, Ryegrass: 0
[6]; [9]
  Plant response rating, Ryegrass: 0
[6]; [10]
  Plant response rating, Ryegrass: 0
[6]; [11]
  Plant response rating, Ryegrass: 30
[7]; Rate 62 g/ha, scale 0 to 100
  Plant response rating, Wheat: 0
[7]; [9]
  Plant response rating, Wheat: 0
[7]; [10]
  Plant response rating, Wheat: 0
[7]; [11]
  Plant response rating, Wheat: 0
[8]; Rate 62 g/ha, scale 0 to 100
  Plant response rating, Canarygrass: 0
[8]; [9]
  Plant response rating, Canarygrass: 0
[8]; [10]
  Plant response rating, Canarygrass: 0
[8]; [11]
  Plant response rating, Canarygrass: 0
